≈ marks a conversion by molar mass, not a printed value.
Columns and labels:
[1] = Stability in SIF; format: physicochemical
[2] = molecular target: CYP 1A2 (Homo sapiens (Human), UniProt P05177); test: CYP inhibition in human liver microsomes, 1A2; format: in vitro ADME
[3] = molecular target: CYP 2B6 (Homo sapiens (Human), UniProt P20813); test: CYP inhibition in human liver microsomes, 2B6; format: in vitro ADME
[4] = molecular target: CYP 2C8 (Homo sapiens (Human), UniProt P10632); test: CYP inhibition in human liver microsomes, 2C8; format: in vitro ADME
Chain of CYP 2C8 (P10632 whole entry): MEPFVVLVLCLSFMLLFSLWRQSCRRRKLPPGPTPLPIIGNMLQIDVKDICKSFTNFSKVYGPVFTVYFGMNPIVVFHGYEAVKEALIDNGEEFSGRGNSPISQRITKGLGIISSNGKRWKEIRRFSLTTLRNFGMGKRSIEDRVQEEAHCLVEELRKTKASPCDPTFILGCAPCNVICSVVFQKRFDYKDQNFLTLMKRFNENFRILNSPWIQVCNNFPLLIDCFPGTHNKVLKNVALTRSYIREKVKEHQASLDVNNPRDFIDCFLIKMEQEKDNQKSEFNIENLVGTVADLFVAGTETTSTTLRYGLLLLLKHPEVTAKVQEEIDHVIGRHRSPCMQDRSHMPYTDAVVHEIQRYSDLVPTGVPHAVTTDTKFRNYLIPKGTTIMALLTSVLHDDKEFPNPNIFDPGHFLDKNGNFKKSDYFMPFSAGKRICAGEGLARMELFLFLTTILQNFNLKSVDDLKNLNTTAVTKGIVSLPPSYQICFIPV

[5] = molecular target: CYP 2D6 (Homo sapiens (Human), UniProt P10635); test: biochemical; format: in vitro ADME; details: Human Liver Microsomes
Chain of CYP 2D6 (P10635 whole entry): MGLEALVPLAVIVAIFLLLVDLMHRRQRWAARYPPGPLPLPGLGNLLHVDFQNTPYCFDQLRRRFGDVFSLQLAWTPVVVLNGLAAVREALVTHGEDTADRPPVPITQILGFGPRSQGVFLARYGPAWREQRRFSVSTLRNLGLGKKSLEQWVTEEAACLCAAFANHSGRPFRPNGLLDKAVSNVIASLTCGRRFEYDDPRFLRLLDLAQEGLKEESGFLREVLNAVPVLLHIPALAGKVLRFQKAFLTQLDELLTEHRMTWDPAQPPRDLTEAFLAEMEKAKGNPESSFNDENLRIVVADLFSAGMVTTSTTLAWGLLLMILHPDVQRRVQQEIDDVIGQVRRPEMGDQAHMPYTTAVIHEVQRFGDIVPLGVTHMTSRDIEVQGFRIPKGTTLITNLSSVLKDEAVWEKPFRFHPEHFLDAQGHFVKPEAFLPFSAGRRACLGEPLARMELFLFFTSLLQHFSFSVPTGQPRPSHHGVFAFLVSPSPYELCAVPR

[6] = Metabolic stability in rat liver microsomes; format: in vitro ADME; details: for Remaining Percentage (%): Rat
[7] = Protein binding in rat plasma; format: in vitro ADME
[8] = Stability in human plasma; format: in vitro ADME
[9] = Stability in rat plasma; format: in vitro ADME
[10] = Solubility in PBS at pH 7.4; format: physicochemical; details: aqueous buffer
[11] = molecular target: ILK-PINCH-Parvin (IPP) complex (Homo sapiens (Human), UniProt Q13418); test: IPP-mediated actin bundling assay; format: biochemical; details: FIG. 4
Chain of ILK-PINCH-Parvin (IPP) complex (Q13418 whole entry): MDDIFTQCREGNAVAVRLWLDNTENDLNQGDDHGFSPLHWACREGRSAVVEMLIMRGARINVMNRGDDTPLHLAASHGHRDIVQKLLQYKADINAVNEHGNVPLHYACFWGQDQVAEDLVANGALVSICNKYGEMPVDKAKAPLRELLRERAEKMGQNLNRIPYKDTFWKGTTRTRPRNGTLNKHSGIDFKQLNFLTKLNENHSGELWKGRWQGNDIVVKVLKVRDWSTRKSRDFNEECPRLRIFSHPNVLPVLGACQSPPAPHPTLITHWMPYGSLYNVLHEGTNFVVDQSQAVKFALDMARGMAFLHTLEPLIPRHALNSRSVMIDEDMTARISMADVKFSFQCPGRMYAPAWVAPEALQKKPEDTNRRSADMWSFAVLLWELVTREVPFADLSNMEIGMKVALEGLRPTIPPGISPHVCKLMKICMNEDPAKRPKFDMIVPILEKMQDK
Chain of ILK-PINCH-Parvin (IPP) complex (P48059 whole entry partner): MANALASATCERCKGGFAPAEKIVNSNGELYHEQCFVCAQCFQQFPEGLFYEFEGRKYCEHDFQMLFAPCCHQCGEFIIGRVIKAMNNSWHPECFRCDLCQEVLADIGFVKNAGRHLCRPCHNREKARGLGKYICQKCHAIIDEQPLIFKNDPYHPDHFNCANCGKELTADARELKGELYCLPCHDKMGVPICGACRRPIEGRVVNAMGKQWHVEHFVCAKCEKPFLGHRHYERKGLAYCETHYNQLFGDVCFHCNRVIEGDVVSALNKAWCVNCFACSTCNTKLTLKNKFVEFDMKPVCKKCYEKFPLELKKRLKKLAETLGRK
Chain of ILK-PINCH-Parvin (IPP) complex (Q9NVD7 whole entry partner): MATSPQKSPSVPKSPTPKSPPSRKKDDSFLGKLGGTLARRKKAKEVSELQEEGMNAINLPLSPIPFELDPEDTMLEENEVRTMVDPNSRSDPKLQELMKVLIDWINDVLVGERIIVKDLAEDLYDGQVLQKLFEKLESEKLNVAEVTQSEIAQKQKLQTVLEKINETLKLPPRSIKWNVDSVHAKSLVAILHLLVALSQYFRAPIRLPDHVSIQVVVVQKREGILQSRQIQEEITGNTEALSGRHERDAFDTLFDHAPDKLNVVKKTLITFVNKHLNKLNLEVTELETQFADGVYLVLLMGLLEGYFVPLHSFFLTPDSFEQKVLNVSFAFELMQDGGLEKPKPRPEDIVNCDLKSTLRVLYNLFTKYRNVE
Source text: Next, we set out to obtain in vitro evidence of Csbl-1. […] Mutation of L207 into bulky Trp in ILK abolished the MgATP binding to ILK and impaired the formation and morphology of actin bundles (Vaynberg et al., 2018). Using the same actin bundling assay, we examined the effect of Csbl-1 on the IPP-mediated actin bundling. […] In general, more bundles with smaller sizes were observed as a result of Csbl-1 interference. Csbl-1 would knock out MgATP at the ILK site and increase the local concentration of Mg^2+, which may impact the actin bundling process (Tang and Janmey, 1996, Vaynberg et al., 2018).

[12] = tested on: MCF10a cells; test: Proliferation of normal breast MCF10a cells; format: cell-based; details: compounds at final 2 μM, FIG. 5 panel A
Protocol: Cells were seeded at 20,000 cells/ml in 12 well plates in complete media. On day 3, the compounds were added at final 2 μM and the cells were counted every 3 days. […] Cells were seeded at 10,000 cells/ml in 12 well plates in complete media. The compounds were added at final 2 μM on day 2 and the cells were counted every 2 days.

Chain of CYP 1A2 (P05177 whole entry): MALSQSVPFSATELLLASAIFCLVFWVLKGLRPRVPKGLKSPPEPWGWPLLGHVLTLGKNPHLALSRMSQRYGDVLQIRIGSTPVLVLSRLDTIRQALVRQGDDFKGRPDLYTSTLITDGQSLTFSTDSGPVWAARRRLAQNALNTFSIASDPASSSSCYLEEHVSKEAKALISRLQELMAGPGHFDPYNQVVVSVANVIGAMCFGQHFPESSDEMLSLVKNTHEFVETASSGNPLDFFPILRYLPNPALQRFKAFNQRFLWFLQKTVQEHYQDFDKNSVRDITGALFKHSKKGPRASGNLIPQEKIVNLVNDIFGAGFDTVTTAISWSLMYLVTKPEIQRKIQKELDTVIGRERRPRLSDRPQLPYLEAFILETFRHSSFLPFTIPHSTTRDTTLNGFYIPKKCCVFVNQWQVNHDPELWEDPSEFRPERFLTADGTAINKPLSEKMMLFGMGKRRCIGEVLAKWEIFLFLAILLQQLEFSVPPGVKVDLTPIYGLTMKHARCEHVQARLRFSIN
Chain of CYP 2B6 (P20813 whole entry): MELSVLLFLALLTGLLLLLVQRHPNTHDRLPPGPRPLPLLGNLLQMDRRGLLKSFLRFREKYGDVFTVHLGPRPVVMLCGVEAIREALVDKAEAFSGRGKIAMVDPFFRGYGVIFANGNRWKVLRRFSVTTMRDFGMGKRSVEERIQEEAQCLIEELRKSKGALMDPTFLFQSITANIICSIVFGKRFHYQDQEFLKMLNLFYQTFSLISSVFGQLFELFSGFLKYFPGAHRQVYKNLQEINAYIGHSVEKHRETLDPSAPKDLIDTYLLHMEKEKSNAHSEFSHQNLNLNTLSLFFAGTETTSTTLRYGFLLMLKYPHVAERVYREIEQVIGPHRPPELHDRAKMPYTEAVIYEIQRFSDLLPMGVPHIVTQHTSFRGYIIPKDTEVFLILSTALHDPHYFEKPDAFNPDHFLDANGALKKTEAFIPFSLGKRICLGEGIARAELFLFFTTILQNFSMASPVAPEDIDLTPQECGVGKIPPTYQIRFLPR

With `C#Cc1cc(Nc2ncnc3cc(OCCOC)ccc23)cc(OCCOCC)c1` [Compound 1] the “Remaining Percentage (%)” value ([1]; 0 min) was 100.00%, the “Remaining Percentage (%)” value ([1]; 30 min) was 104.86% and the “Remaining Percentage (%)” value ([1]; 60 min) was 109.34%. The “Remaining Percentage (%)” value ([1]; 120 min) was 105.85%, the “Remaining Percentage (%)” value ([1]; 180 min) was 108.93% and the “Remaining Percentage (%)” value ([1]; 240 min) was 109.26%. The IC50 [2] was 33.3 µM, the IC50 [3] was > 50 µM and the IC50 [4] was 3.24 µM. For the same compound, the IC50 [5] was 27.6 µM, the half-life ([6]; Rat liver microsomes) was 16 min and the microsomal CLint ([6]; Rat liver microsomes, read-out: CLint (μL/min/mg protein)) was 86.6 µL/min/mg. For the same compound, the CLint scaled ([6]; Rat liver microsomes, read-out: Scaled-up CLint) was 155 mL/min/kg, the “Remaining Percentage (%)” value ([6]; With NADPH, 0 min) was 100.00% and the “Remaining Percentage (%)” value ([6]; With NADPH, 15 min) was 45.00%. The “Remaining Percentage (%)” value ([6]; With NADPH, 30 min) was 21.08%, the “Remaining Percentage (%)” value ([6]; With NADPH, 45 min) was 11.69% and the “Remaining Percentage (%)” value ([6]; With NADPH, 60 min) was 7.65%. The “Remaining Percentage (%)” value ([6]; Without NADPH, 0 min) was 100.00%, the “Remaining Percentage (%)” value ([6]; Without NADPH, 15 min) was 95.03% and the “Remaining Percentage (%)” value ([6]; Without NADPH, 30 min) was 90.68%. The “Remaining Percentage (%)” value ([6]; Without NADPH, 45 min) was 91.30%, the “Remaining Percentage (%)” value ([6]; Without NADPH, 60 min) was 102.48% and the recovery [7] was 93.4%. The fraction unbound ([7]; read-out: % Bound (converted)) was 0.0083, the “Remaining Percentage (%)” value ([8]; 0 min) was 100.00% and the “Remaining Percentage (%)” value ([8]; 15 min) was 93.79%. The “Remaining Percentage (%)” value ([8]; 30 min) was 93.79%, the “Remaining Percentage (%)” value ([8]; 45 min) was 90.52% and the “Remaining Percentage (%)” value ([8]; 60 min) was 90.20%. For the same compound, the “Remaining Percentage (%)” value ([8]; 120 min) was 88.56%, the “Remaining Percentage (%)” value ([9]; 0 min) was 100.00% and the “Remaining Percentage (%)” value ([9]; 15 min) was 92.93%. For the same compound, the “Remaining Percentage (%)” value ([9]; 30 min) was 94.35%, the “Remaining Percentage (%)” value ([9]; 45 min) was 93.29% and the “Remaining Percentage (%)” value ([9]; 60 min) was 94.70%. For the same compound, the “Remaining Percentage (%)” value ([9]; 120 min) was 91.52%, the solubility [10] was 7.96 µM (≈ 3.24 µg/mL) and the “effect on IPP-induced actin bundles” value [11] was “substantial change of IPP-induced actin bundles”. The “effect on proliferation of MCF10a cells” value [12] was “little effect”.
